Experimental data taken from publication PMC8330735 (Journal of Enzyme Inhibition and Medicinal Chemistry, 2021).

Experiments:
[1] = test system: stomach ulceration in rats; assay: Gastric acute ulcerogenic activity; conditions: rat, n = 5; for Ulcer Index (UI): UI = UN + US + UP×10^−1
Description: The rats from the previous experiment were fasted for 12 h., followed by the administration of additional doses of the selected compounds or the two references for two consecutive days. Six hrs after the last treatment, the animals were sacrificed, and their stomachs were removed, washed with saline solution (0.9%) and examined for ulceration using a magnifying lens. The ulcer scores were estimated according to the method prescribed by Kulkarni and as detailed in our previous studies[36–38]. The following scores were individually assigned to each lesion: normal coloured stomach, 0; red colouration, 0.5; spot ulcers, 1; haemorrhagic streaks, 1.5; ulcer >3 but <5 mm, 2; and ulcers >5 mm, 3.

[2] = test system: carrageenan-induced rat paw oedema; assay: Carrageenan-induced rat paw oedema test; format: in vivo; conditions: compounds and celecoxib 50 mg/kg, ibuprofen and indomethacin 20 mg/kg; for Mean oedema thickness 1h: 1 h after carrageenan; for Mean oedema thickness 1h / Mean oedema thickness 2h / Mean oedema thickness 3h / Mean oedema thickness 4h / Mean oedema thickness 5h / Mean oedema thickness 24h / Mean oedema thickness 0h: mean ± SEM, n = 5; for Mean oedema thickness 2h: 2 h after carrageenan; for Mean oedema thickness 3h: 3 h after carrageenan; for Mean oedema thickness 4h: 4 h after carrageenan; for Mean oedema thickness 5h: 5 h after carrageenan; for Mean oedema thickness 24h: 24 h after carrageenan; for Mean oedema thickness 0h: before carrageenan (0 h); for Average oedema inhibition%: from area under the curve of all time points
Description: The rats were divided into nine groups (n = 5/group). All tested compounds were suspended in 1% Tween-80. Group 1, controls, were given the vehicle (1% Tween80, 10 ml/kg). […] The rats were given the drugs 1 h before the injection of carrageenan solution (1% in 0.9% NaCl, 0.1 ml) (Sigma Aldrich, USA) in the sub-planter tissue of the right hind paw. The paw thickness (mm) was measured using a calliper before (0 h) and after carrageenan injection at 1, 2, 3, 4, 5 and 24 h. The inhibition of oedema thickness was calculated using the following formula (control– drug/control) × 100.

SMILES | Average Ulcer number [1] | Lesion Incidence (%) [1] [%] | Number of rats with ulcer [1] | Ulcer Index (UI) [1] | Mean oedema thickness 1h [2] [mm] | Mean oedema thickness 2h [2] [mm] | Mean oedema thickness 3h [2] [mm] | Mean oedema thickness 4h [2] [mm] | Mean oedema thickness 5h [2] [mm] | Mean oedema thickness 24h [2] [mm] | Mean oedema thickness 0h [2] [mm] | Average oedema inhibition% [2] [%]
CC(C)Cc1ccc(C(C)C(=O)NN2C(=O)c3ccccc3N(C)C2c2ccc([N+](=O)[O-])cc2)cc1 (stereo not drawn) [7c, 2-(4-Isobutylphenyl)-N-(1-methyl-2-(4-nitrophenyl)-4-oxo-1,4-dihydroquinazolin-3(2H)-yl) propenamide] | 1 | 60 | 3 | 8 | 1.79 ± 0.04 | 2.21 ± 0.35 | 1.90 ± 0.44 | 1.62 ± 0.26 | 1.55 ± 0.29 | 0.06 ± 0.04 | 0.00 ± 0.00 | 45.37
NNC(=O)CSc1nc2ccccc2c(=O)n1NC(=O)Cc1ccccc1 [13b, N-(2-((2-hydrazinyl-2-oxoethyl)thio)-4-oxoquinazolin-3(4H)-yl)-2-phenylacetamide] | 0.4 | 40 | 2 | 4.8 | 2.26 ± 0.30 | 2.58 ± 0.41 | 2.67 ± 0.15 | 1.97 ± 0.29 | 1.61 ± 0.23 | 0.45 ± 0.14 | 0.00 ± 0.00 | 45.49
